# Experimental data from the supplement of paper PMC10307832.
# Compound: CC1=C(N=C(N=C1N)[C@H](CC(=O)N)NC[C@@H](C(=O)N)N)C(=O)N[C@@H]([C@H](C2=CN=CN2)OC3C(C(C(C(O3)CO)O)O)OC4C(C(C(C(O4)CO)O)OC(=O)N)O)C(=O)N[C@H](C)[C@H]([C@H](C)C(=O)N[C@@H]([C@@H](C)O)C(=O)NCCC5=NC(=CS5)C6=NC(=CS6)C(=O)NCCC[S+](C)C)O [Bleomycin] + CS(=O)(=O)CCNCc1ccc(-c2ccc3ncnc(Nc4ccc(OCc5cccc(F)c5)c(Cl)c4)c3c2)o1 [Lapatinib] (partner 2 µM)
# Experiment: relative viability (nuclei count vs DMSO), 5 days (fraction); higher = more cells survive
# Settings: first compound 0.01 µM; main component drawn
# In short: (§1)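 Dosing by pin tool came one day after lung cancer cell lines were seeded in 1536-well plates, using either one drug or a fixed anchor-drug dose plus five library-drug doses (not always all listed) in √10 steps. After 5 days, nuclei were counted on 4× images. Relative viability is treated-well nuclei count divided by vehicle-well nuclei count, and values are medians of duplicate plates.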
row,Cell Line,relative viability
1,NCI-H838,0.478
2,NCI-H1650,0.535
3,EBC-1,0.217
4,NCI-H1703,1.01
5,NCI-H1993,0.732
6,NCI-H2087,0.642
7,PC-14,0.302
8,NCI-H596,0.852
9,NCI-H2228,0.999
10,EMC-BAC-2,0.817
11,NCI-H2085,0.689
12,Calu-6,0.729
13,HCC-366,0.52
14,NCI-H1666,0.607
15,NCI-H647,0.353
16,LK-2,0.66
17,NCI-H2126,0.768
18,SK-MES-1,0.506
19,H3255,0.244
20,COR-L23,0.707
21,COR-L 105,0.279
22,IA-LM,0.476
23,NCI-H2170,0.303
24,A549,0.695
25,NCI-H1395,0.965
26,NCI-H1299,0.926
27,NCI-H1793,0.729

# Same assay, conditions: first compound 0.03162 µM; main component drawn
row,Cell Line,relative viability
1,NCI-H838,0.229
2,NCI-H1650,0.321
3,EBC-1,0.215
4,NCI-H1703,1
5,NCI-H1993,0.736
6,NCI-H2087,0.97
7,PC-14,0.244
8,NCI-H596,0.742
9,NCI-H2228,1.12
10,EMC-BAC-2,0.754
11,NCI-H2085,0.689
12,Calu-6,0.614
13,HCC-366,0.337
14,NCI-H1666,0.417
15,NCI-H647,0.336
16,LK-2,0.488
17,NCI-H2126,0.76
18,SK-MES-1,0.438
19,H3255,0.235
20,COR-L23,0.776
21,COR-L 105,0.379
22,IA-LM,0.7
23,NCI-H2170,0.262
24,A549,0.634
25,NCI-H1395,0.841
26,NCI-H1299,0.985
27,NCI-H1793,0.567

# Same assay, conditions: first compound 0.1 µM; main component drawn
row,Cell Line,relative viability
1,NCI-H838,0.184
2,NCI-H1650,0.235
3,EBC-1,0.199
4,NCI-H1703,0.807
5,NCI-H1993,0.754
6,NCI-H2087,0.798
7,PC-14,0.222
8,NCI-H596,0.547
9,NCI-H2228,0.852
10,EMC-BAC-2,0.719
11,NCI-H2085,0.6
12,Calu-6,0.456
13,HCC-366,0.212
14,NCI-H1666,0.344
15,NCI-H647,0.191
16,LK-2,0.542
17,NCI-H2126,0.735
18,SK-MES-1,0.407
19,H3255,0.259
20,COR-L23,0.294
21,COR-L 105,0.345
22,IA-LM,0.623
23,NCI-H2170,0.259
24,A549,0.38
25,NCI-H1395,0.711
26,NCI-H1299,0.772
27,NCI-H1793,0.544

# Same assay, conditions: first compound 0.3162 µM; main component drawn
row,Cell Line,relative viability
1,NCI-H838,0.159
2,NCI-H1650,0.147
3,EBC-1,0.206
4,NCI-H1703,0.287
5,NCI-H1993,0.656
6,NCI-H2087,0.301
7,PC-14,0.096
8,NCI-H596,0.416
9,NCI-H2228,0.355
10,EMC-BAC-2,0.399
11,NCI-H2085,0.437
12,Calu-6,0.168
13,HCC-366,0.0246
14,NCI-H1666,0.247
15,NCI-H647,0.0899
16,LK-2,0.261
17,NCI-H2126,0.638
18,SK-MES-1,0.303
19,H3255,0.214
20,COR-L23,0.14
21,COR-L 105,0.268
22,IA-LM,0.274
23,NCI-H2170,0.231
24,A549,0.0818
25,NCI-H1395,0.417
26,NCI-H1299,0.431
27,NCI-H1793,0.275

# Same assay, conditions: first compound 1 µM; main component drawn
row,Cell Line,relative viability
1,NCI-H838,0.152
2,NCI-H1650,0.16
3,EBC-1,0.196
4,NCI-H1703,0.281
5,NCI-H1993,0.609
6,NCI-H2087,0.235
7,PC-14,0.0848
8,NCI-H596,0.452
9,NCI-H2228,0.505
10,EMC-BAC-2,0.305
11,NCI-H2085,0.449
12,Calu-6,0.174
13,HCC-366,0.0258
14,NCI-H1666,0.288
15,NCI-H647,0.0986
16,LK-2,0.248
17,NCI-H2126,0.548
18,SK-MES-1,0.255
19,H3255,0.173
20,COR-L23,0.115
21,COR-L 105,0.294
22,IA-LM,0.336
23,NCI-H2170,0.21
24,A549,0.0645
25,NCI-H1395,0.397
26,NCI-H1299,0.382
27,NCI-H1793,0.219

# Compound: CC1=C(N=C(N=C1N)[C@H](CC(=O)N)NC[C@@H](C(=O)N)N)C(=O)N[C@@H]([C@H](C2=CN=CN2)OC3C(C(C(C(O3)CO)O)O)OC4C(C(C(C(O4)CO)O)OC(=O)N)O)C(=O)N[C@H](C)[C@H]([C@H](C)C(=O)N[C@@H]([C@@H](C)O)C(=O)NCCC5=NC(=CS5)C6=NC(=CS6)C(=O)NCCC[S+](C)C)O [Bleomycin] + C[C@@H](Oc1cc(-c2cnn(C3CCNCC3)c2)cnc1N)c1c(Cl)ccc(F)c1Cl [Crizotinib] (partner 1 µM)
# Experiment: as above
# Settings: first compound 0.01 µM; main component drawn
# In short: as §1
row,Cell Line,relative viability
1,NCI-H838,0.437
2,NCI-H1650,0.397
3,EBC-1,0.204
4,NCI-H1703,0.751
5,NCI-H1993,0.629
6,NCI-H2087,0.617
7,PC-14,0.578
8,LCLC-103H,0.956
9,NCI-H596,0.896
10,NCI-H2228,0.393
11,EMC-BAC-2,0.628
12,NCI-H2085,0.608
13,Calu-6,0.514
14,HCC-366,0.152
15,NCI-H1666,0.717
16,NCI-H647,0.313
17,LK-2,0.237
18,NCI-H2126,0.932
19,SK-MES-1,0.83
20,H3255,0.61
21,COR-L23,0.444
22,COR-L 105,0.587
23,IA-LM,0.502
24,NCI-H2170,0.996
25,A549,0.601
26,NCI-H1299,0.896

# Same assay, conditions: first compound 0.03162 µM; main component drawn
row,Cell Line,relative viability
1,NCI-H838,0.32
2,NCI-H1650,0.311
3,EBC-1,0.193
4,NCI-H1703,0.655
5,NCI-H1993,0.712
6,NCI-H2087,0.771
7,PC-14,0.516
8,LCLC-103H,1.01
9,NCI-H596,0.661
10,NCI-H2228,0.362
11,EMC-BAC-2,0.626
12,NCI-H2085,0.723
13,Calu-6,0.394
14,HCC-366,0.137
15,NCI-H1666,0.57
16,NCI-H647,0.326
17,LK-2,0.216
18,NCI-H2126,1.1
19,SK-MES-1,0.86
20,H3255,0.742
21,COR-L23,0.317
22,COR-L 105,0.875
23,IA-LM,0.64
24,ChaGo-K-1,0.999
25,NCI-H2170,1.19
26,A549,0.562
27,NCI-H441,0.534
28,NCI-H1299,0.943

# Same assay, conditions: first compound 0.1 µM; main component drawn
row,Cell Line,relative viability
1,NCI-H838,0.184
2,NCI-H1650,0.258
3,EBC-1,0.2
4,NCI-H1703,0.676
5,NCI-H1993,0.693
6,NCI-H2087,0.735
7,PC-14,0.259
8,LCLC-103H,1
9,NCI-H596,0.558
10,NCI-H2228,0.488
11,EMC-BAC-2,0.738
12,NCI-H2085,0.671
13,Calu-6,0.379
14,HCC-366,0.0986
15,NCI-H1666,0.469
16,NCI-H647,0.213
17,LK-2,0.213
18,NCI-H2126,0.982
19,SK-MES-1,0.753
20,H3255,0.55
21,COR-L23,0.226
22,COR-L 105,0.52
23,IA-LM,0.476
24,ChaGo-K-1,0.754
25,NCI-H2170,1.12
26,A549,0.339
27,NCI-H441,0.469
28,NCI-H1299,0.715

# Same assay, conditions: first compound 0.3162 µM; main component drawn
row,Cell Line,relative viability
1,NCI-H838,0.176
2,NCI-H1650,0.16
3,EBC-1,0.198
4,NCI-H1703,0.322
5,NCI-H1993,0.678
6,NCI-H2087,0.303
7,PC-14,0.105
8,LCLC-103H,0.915
9,NCI-H596,0.409
10,NCI-H2228,0.318
11,EMC-BAC-2,0.318
12,NCI-H2085,0.372
13,Calu-6,0.141
14,HCC-366,0.0238
15,NCI-H1666,0.339
16,NCI-H647,0.135
17,LK-2,0.229
18,NCI-H2126,0.948
19,SK-MES-1,0.309
20,H3255,0.378
21,COR-L23,0.0998
22,COR-L 105,0.368
23,IA-LM,0.523
24,ChaGo-K-1,0.385
25,NCI-H2170,0.662
26,A549,0.0813
27,NCI-H441,0.363
28,NCI-H1299,0.402

# Same assay, conditions: first compound 1 µM; main component drawn
row,Cell Line,relative viability
1,NCI-H838,0.172
2,NCI-H1650,0.172
3,EBC-1,0.151
4,NCI-H1703,0.195
5,NCI-H1993,0.527
6,NCI-H2087,0.274
7,PC-14,0.0849
8,LCLC-103H,0.588
9,NCI-H596,0.475
10,NCI-H2228,0.327
11,EMC-BAC-2,0.241
12,NCI-H2085,0.404
13,Calu-6,0.181
14,HCC-366,0.0225
15,NCI-H1666,0.325
16,NCI-H647,0.109
17,LK-2,0.273
18,NCI-H2126,0.801
19,SK-MES-1,0.213
20,H3255,0.287
21,COR-L23,0.099
22,COR-L 105,0.364
23,IA-LM,0.29
24,ChaGo-K-1,0.333
25,NCI-H2170,0.624
26,A549,0.0619
27,NCI-H441,0.398
28,NCI-H1299,0.331

# Compound: CC1=C(N=C(N=C1N)[C@H](CC(=O)N)NC[C@@H](C(=O)N)N)C(=O)N[C@@H]([C@H](C2=CN=CN2)OC3C(C(C(C(O3)CO)O)O)OC4C(C(C(C(O4)CO)O)OC(=O)N)O)C(=O)N[C@H](C)[C@H]([C@H](C)C(=O)N[C@@H]([C@@H](C)O)C(=O)NCCC5=NC(=CS5)C6=NC(=CS6)C(=O)NCCC[S+](C)C)O [Bleomycin] + C[C@]1(O)C[C@@H](c2nc(-c3ccc4ccc(-c5ccccc5)nc4c3)c3c(N)nccn32)C1 [Linsitinib] (partner 1 µM)
# Experiment: as above
# Settings: first compound 0.01 µM; main component drawn
# In short: as §1
row,Cell Line,relative viability
1,NCI-H838,0.652
